From patent publication US6995138B2, “Cross-linked glycopeptide-cephalosporin antibiotics” (priority 2002, dated 2006) come the findings set out here.

Values after ≈ are worked out from the molar mass of the structure shown.

What is called ED50 is the midpoint of the dose-response relation.

Assay [1] relates to MRSA 33591. Briefly: In vivo efficacy in neutropenic mice (thigh infection). The note with it: Staphylococcus aureus; neutropenic male CD-1 mice, MRSA 33591 thigh infection, iv, 24 hours post-treatment; read-out: ED50 (dose required to produce 50% of the maximum reduction in thigh titre). The procedure: In vivo Efficacy Studies in Neutropenic Mice Animals (male CD-1 mice, 20-30 g) were acquired from Charles Rivers Laboratories (Gilroy, Calif.) and allowed access to food and water ad libitum. Neutropenia was induced via 200 mg/kg intraperitoneal (IP) injection of cyclophosphamide given four and two days prior to the inoculation of bacteria.
The organism used was either a susceptible or resistant strain of clinically relevant gram positive pathogens, such as methicillin-susceptible Staphylococcus aureus (MSSA 13709) and methicillin-resistant Staphylococcus aureus (MRSA 33591). The bacterial inoculum concentration was ˜10^6 CFU/mL. Animals were lightly anesthetized with isoflurane and […] of the bacterial inoculum was injected into the anterior thigh. One hour after the inoculation, animals were dosed intravenously with vehicle or the appropriate dose of the test compound. At 0 hours and 24 hours post-treatment, the animals were euthanized (CO2 asphyxiation) and the anterior and posterior thigh collected aseptically. The thigh was placed into 10 mL sterile saline and homogenized. Dilutions of the homogenate were plated onto triptic soy agar plates which were incubated overnight. The number of bacterial colonies on a given plate was multiplied by the dilution factor, divided by the thigh weight (in grams) and expressed as log CFU/g. […]

For assay [2], the system named is MRSA 33591. Put plainly: Time-kill assay, MRSA. The class given is cell-based, Staphylococcus aureus. The note with it: bactericidal in 24 hours.
Method: Time-Kill Assay This time-kill assay is a method for measuring the rate of bactericidal activity of a test compound.
Bacteria were diluted in prewarmed media in shake flasks and incubated with shaking (200 rpm, 35° C.). At 0, 1, 4, and 24 hours samples were withdrawn from the flasks and bacteria were enumerated by plate counting. Subsequent to the initial sampling, a compound to be assayed was added to the shake flask culture. Plate counts at these intervals previous to and following addition of the compound were expressed graphically in a time-kill curve.
The next assay concerns MSSA 13709. Put plainly: Time-kill assay, MSSA. It counts as cell-based, Staphylococcus aureus. The note with it: bactericidal in 24 hours.
The test system of assay [3] is Methicillin-sensitive S. aureus (MSSA 13709). Put plainly: Minimal inhibitory concentration (MIC), broth microdilution, MSSA. It counts as cell-based. The note with it: Staphylococcus aureus, read-out: MIC (minimum inhibitory concentration). The procedure:
(§1) Minimal inhibitory concentration (MICs) assays were performed using the broth microdilution method set forth in NCCLS guidelines (see, NCCLS. 2000. Methods for Dilution Antimicrobial Susceptibility Tests for Bacteria That Grow Aerobically; Approved Standard—Fifth Ed., Vol. 20, No. 2). Bacterial strains were obtained from the American Type Tissue Culture Collection (ATCC), Stanford University Hospital (SU), Kaiser Permanente Regional Laboratory in Berkeley (KPB), Massachusetts General Hospital (MGH), the Centers for Disease Control (CDC), the San Francisco Veterans' Administration Hospital (SFVA) or the University of California San Francisco Hospital (UCSF). Vancomycinresistant enterococci were phenotyped as Van A or Van B based on their sensitivity to teicoplanin. Some vancomycin-resistant enterococci that had been genotyped as Van A, Van B, Van C1 or Van C2 were also obtained from the Mayo Clinic.
(§2) In this assay, cryopreserved bacterial cultures of reference and clinical strains were streaked for isolation on appropriate agar medium (i.e., Trypticase Soy Agar, Trypticase Soy Agar with defibrinated sheep erthrocytes, Brain Heart Infusion Agar, Chocolate Agar). Following incubation to allow formation of colonies, these plates were sealed with parafilm and stored refrigerated for up to two weeks. […] The MIC was read visually as the lowest concentration well with no bacterial growth. […]
For orientation: Dilution methods test growth across graded concentrations, often in twofold steps.

Assay [4] relates to Methicillin-resistant S. aureus (MRSA 33591). Briefly: Minimal inhibitory concentration (MIC), broth microdilution, MRSA. The class given is cell-based. The note with it: Staphylococcus aureus, read-out: MIC (minimum inhibitory concentration). The procedure: as §1, §2

Regarding `CN[C@H](CC(C)C)C(=O)N[C@H]1C(=O)N[C@@H](CC(N)=O)C(=O)N[C@H]2C(=O)N[C@H]3C(=O)N[C@H](C(=O)N[C@H](C(=O)O)c4cc(O)cc(O)c4-c4cc3ccc4O)[C@H](O)c3ccc(c(Cl)c3)Oc3cc2cc(c3O[C@@H]2O[C@H](CO)[C@@H](O)[C@H](O)[C@H]2O[C@H]2C[C@](C)(N)[C@H](O)[C@H](C)O2)Oc2ccc(cc2Cl)[C@H]1O` [Vancomycin, vancomycin], the ED50 in the assay on MRSA 33591 [1] was 9 mg/kg. Further, the “concentration at which bactericidal (≧3 log decrease in bacterial cell numbers)” value in the assay with MRSA 33591 [2] and in the assay on MSSA 13709 was 4 μg/mL throughout. The MIC in assay [3] was found to be 1 µg/mL (≈ 0.69 µM); in assay [4], 2 µg/mL (≈ 1.38 µM).
